US3954793A, “1-(2-Propynyl)-1 H-indazole compounds” (priority 1973, dated 1976)
Where “and” joins values, the source holds several entries; their conditions need not be identical. Equal values may be shown once.

Key:
[1] = tested on: IN/WHO strain house flies; assay: topical application, percent kill after 24 hours, susceptible IN/WHO strain; format: in vivo, female)
Description: (§1) In Table IX, and in the tables following it, the doses of topically applied insecticides and of synergists unless otherwise noted are expressed as micrograms per fly (μg/fly).
(§2) The synergistic effect of O-(2-propynyl) oximes with mobam was determined from topical application tests on susceptible, female, IN/WHO strain house flies and from tests on resistant, female, Rutgers A strain house flies. The synergist and insecticide were dissolved in ACS Grade acetone in such quantities that a 1.0 μ liter volume applied to the thorax of 3-to-5 day old CO2 -anesthetized female adult house flies contained the desired dosage. After being treated, the flies were confined, 10 to a plaster petri dish, with 3-5 dishes/treament, and held for 24-hr. observation of mortality. Reconstituted skim milk on cotton dental wicks was provided during the holding period. The percent kills after 24 hours are shown in Table X for the IN/WHO strain and Table XI for the Rutgers A strain.
(§3) The synergistic effect of benzyl 2-propynyl ethers with mobam was determined from topical application tests on IN/WHO and Rutgers A strain houseflies, following the procedure of Example 5. The percent kills after 24 hours are shown in Table XIV for the IN/WHO strain and in Table XV for the Rutgers A strain.
The effects of varying the insecticide dose and the synergist-insecticide ratio are further illustrated, with synergist compounds II-D, II-E, II-F and Mobam insecticide, in Tables XVI, XVII and XVIII. […]
The effect on IN/WHO flies of synergist compound IV-C, identified in Table IV, with mobam was determined by the topical application procedure of Example 5. […]
(§4) The synergistic effect with GS 13005 of compounds I-A, I-B, I-D, I-E, I-F, I-G and I-I was determined from topical application tests to IN/WHO strain, Rutgers A strain and polyvalent CH strain houseflies using the procedures of Example 5. The percent kills of the IN/WHO strain flies after 24 hours are shown in Table XXVIII; of the Rutgers A strain, in Table XXIX; and of the polyvalent CH strain, in Table XXX. The doses of insecticide alone to the CH strain files caused 10-40% mortality.
The synergistic effect with Diazinon and GS 13005 of various of the benzyl 2-propynyl ethers identified in Tables II and IIa was determined by topical application tests on IN/WHO strain, and Rutgers A strain and polyvalent, resistant, CH strain houseflies using the procedures of Example 5. The percent kills after 24 hours of IN/WHO strain flies are shown in Table XXXI; of Rutgers A strain flies, in Table XXXII; and of CH strain flies, in Table XXXIII. The doses of insecticide alone to the CH strain flies caused 10-40% mortality. […]
(§5) The synergistic effect on IN/WHO strain flies and Rutgers A strain flies of compound IV-C with GS 13005 and with Diazinon was determined by the topical application procedure of Example 5. The percent kills of IN/WHO strain flies after 24 hours are shown in Tables XXXVI and XXXVII; the percent kills of Rutgers A strain flies are shown in Tables XXXVIII and XXXIX.

[2] = tested on: Rutgers A strain house flies; assay: topical application, percent kill after 24 hours, resistant Rutgers A strain; format: in vivo, female)
Description: as §1, §2, §3
The synergistic effect with Diazinon of compounds I-B, I-D, I-F, I-G, I-H and I-I, identified in Tables I and Ia, was determined from topical application tests on IN/WHO strain houseflies and on Rutgers A strain houseflies by the procedure of Example 5. The percent kills after 24 hours are shown in Table XXV for the IN/WHO strain and Table XXVI for the Rutgers A strain.
as §4
(§6) The synergistic effect with Diazinon and GS 13005 of various of the benzyl 2-propynyl ethers identified in Tables II and IIa was determined by topical application tests on IN/WHO strain, and Rutgers A strain and polyvalent, resistant, CH strain houseflies using the procedures of Example 5. The percent kills after 24 hours of IN/WHO strain flies are shown in Table XXXI; of Rutgers A strain flies, in Table XXXII; and of CH strain flies, in Table XXXIII. The doses of insecticide alone to the CH strain flies caused 10-40% mortality.
as §5

[3] = tested on: polyvalent resistant (CH strain) houseflies; assay: whole plant or invertebrate; format: in vivo
Description: The effect of O-(2-propynyl) oximes with Dimetilan and with GS 13798 was obtained from tests on polyvalent resistant (CH strain) houseflies that had been chilled and to the dorsal region of which was applied an acetone solution of synergist and insecticide at a ratio of two to one. Duplicate tests were performed using 10 four to five-day old female houseflies per test. After dosage, the flies were put in a plastic petri dish with cotton soaked in a sugar-water solution. These doses of insecticide used without synergist caused 10-40% mortality.
as §1
The effect of compounds II-C, II-D and II-E with Dimetilan and GS 13798 was determined, following the procedure of Example 5, from tests on polyvalent resistant (CH strain) houseflies. These doses of insecticide used without synergist caused 10-40% mortality.
as §4, §6
The synergistic effect with pyrethrum of various synergist compounds was determined by topical application tests on polyvalent, resistant CH strain houseflies following the procedure of Example 5. Application of the insecticide alone caused 10-40% mortality.

[4] = tested on: Wilson strain house flies; format: in vivo, Wilson strain (susceptible); settings: for Contact Synergistic Ratio, Pyrolan: LC50 pyrolan alone / LC50 with synergist, synergist to insecticide 5:1 by weight; for Contact Synergistic Ratio, Carbaryl: in vivo
Description: The required solutions of the insecticide and of the synergist compound were prepared in acetone at a concentration of 1 milligram per milliliter. One-pint wide mouth glass jars were coated with the appropriate insecticide-synergist combination by rolling the jars containing aliquots of the appropriate solutions diluted to three milliliters with acetone to deposit, by evaporation, a film of the test materials. The flies were transferred under carbon dioxide anesthesia and held in the jar at room temperature. Perforated aluminum foil was used to cover the jars and to hold cotton saturated with 10% sugar solution. Counts were made at intervals, but the recorded mortality was based on 24-hour kill, rather than knockdown. All prostrate non-moving flies were considered dead. A determination was then made of the contact synergistic ratio [SR], which is the ratio of the LC50 of insecticide alone to the LC50 of the insecticide when applied together with the synergist. The LC50 of the insecticide was estimated from a log-probit plot of percent kill versus dosage. […] The LC50 of the combination of insecticide and synergist was determined at a synergist to insecticide parts by weight ratio of five to one.

[5] = tested on: Swiss albino, white male mice; assay: acute toxicity and synergism of acute toxicity in mice; format: in vivo; settings: 48 hours; for Lethality, Dimetilan alone (number of mice dead) / number of mice dead, with Dimetilan: eight mice
Description: To determine the acute toxicity of dimetilan alone, eight dosage levels of Dimetilan, ranging from 4 to 32 mg per kg were applied to eight, Swiss, albino, white, male mice per dosage level. The mice weighed approximately 23 to 27 grams and were five to six weeks old. The Dimetilan was administered intraperitoneally in 0.1 ml of corn oil one hour after the administration of the same dose of corn oil alone.
To determine the acute toxicity of the synergist alone, various synergists were administered intraperitoneally at a dose of 1000 mg/kg to each of a group of eight mice. The number of animals dead at the end of 72 hours is reported in the left hand column of Table XXXXVI.
The synergism of the acute toxicity of Dimetilan by various synergists was determined by tests on Swiss albino, white male mice aged five to six weeks and weighing 23 to 27 grams. The synergists and insecticides were dissolved in corn oil and the drugs were dissolved in distilled water. All compounds were administered intraperitoneally by injection in the lower quadrent of the abdomen. The synergist was administered in 0.1 ml of corn oil one hour prior to administration of the insecticide. Eight mice were treated, per dosage, with each synergist. The mice were watched for a minimum of 6 hours while held in a glass jar with bedding individually after intraperitoneal injection of the test solutions. Lethality was noted, the animals were weighed and transferred in cages, and food and water were supplied. Control mice were given 0.1 ml of corn oil at the time of administration of the synergist to the test mice and 0.1 ml corn oil plus Dimetilan at the time of administration of the insecticide to the test mice.
By the same procedure, the synergism of acute toxicity of GS 13005, Secobarbital and 6-dimethylamino-4,4-diphenyl-3-heptanone [Methadone] was determined.

male mice = assay: extension of sleeping time of depressant drugs by synergists; format: in vivo, male mice (Swiss albino white); settings: for Mean Sleeping Time, Noludar / Relative Sleeping Time, Noludar: Noludar 110 mg/kg; for Relative Sleeping Time, Noludar / Relative Sleeping Time, Secobarbital: treated/control; for Mean Sleeping Time, Secobarbital / Relative Sleeping Time, Secobarbital: Secobarbital 37 mg/kg
Description: The selectivity of the synergist compounds of this invention is illustrated by the results of sleeping-time extension tests and of acute toxicity tests on Swiss albino white male mice.
The effect of various synergist compounds on sleeping time of sodium secobarbital [Secobarbital] and of 3,3-diethyl-5-methyl-2,4-dioxypiperidine [Noludar] was determined by administering the drug, with and without synergist, to approximately 38-day old male mice weighing from 25 to 30 grams. Synergists were administered in each of two doses, 74.0 mg/kg (dilution being 2.0 mg/0.1 ml corn oil), and 110.0 mg/kg (dilution 3.0 mg/0.1 ml oil). Secobarbital was administered at a dose of 37.0 mg/kg (dilution 1.0 mg/0.1 ml water). Noludar was administered at a dose of 110.0 mg/kg (dilution 3.0 mg/0.1 ml water). The synergist was administered one hour prior to administration of the Secobarbital or Noludar. Secobarbital and Noludar sleeping times were obtained for both the control (drug only) and the treated (synergist plus drug) mice by noting the time lapse between the administration of the drug and the recovery of the righting reflex, i.e. when the animal regains conciousness and can walk up an inclined wooden tray with coordination. The relative sleeping time (R.S.) was noted. The R.S. is the extended sleeping time in the treated mice (synergist plus drug) divided by the sleeping time in the control mice (drug only). The mean sleeping time for the treated mice and the R.S. are shown on Table XXXXIV for various synergist compounds.

[6] = insecticide alone at the doses of the CH strain tables, 1440 min
[7] = Dimetilan 8 mg/kg, oil in place of synergist
[8] = synergist 110 mg/kg one hour prior
[9] = Dimetilan 8 + synergist 240 mg/kg i.p.

## CCOP(=S)(OCC)Oc1cc(C)nc(C(C)C)n1 [Diazinon, O,O-diethyl O-(2-isopropyl-4-methyl-6-pyrimidyl) phosphorothioate, reference compound]
[1]; Diazinon 0.02, synergist 0 μg/fly
  percent kill after 24 hours, Diazinon alone: 3%
[1]; Diazinon 0.03, synergist 0 μg/fly, 1440 min
  percent kill after 24 hours, Diazinon alone: 0% and 5%
[2]; Diazinon 1.0, synergist 0 μg/fly
  percent kill after 24 hours, Diazinon alone: 0%
[2]; Diazinon 1.5, synergist 0 μg/fly, 1440 min
  percent kill after 24 hours, Diazinon alone: 3% and 0%
[3]; house fly, in vivo, topical or ocular, 24 h
  mortality, insecticide used without synergist: 10-40%

## Cc1cc(OC(=O)N(C)C)nn1C(=O)N(C)C [Dimetilan, 1-(dimethylcarbamoyl)-5-methyl-3-pyrazolyl dimethylcarbamate, reference compound]
[1]; Dimetilan 0.031 μg/fly
  24 hour percent mortality, Dimetilan alone: 0%
[4]; insecticide alone, common house fly
  lethality to the common house fly, in words: relatively lethal
[3]; [6]
  mortality, insecticide used without synergist: 10-40%
[5]; 4.0 mg/kg i.p.
  Lethality, Dimetilan alone (number of mice dead): 0
[5]; 8.0 mg/kg i.p.
  Lethality, Dimetilan alone (number of mice dead): 0
[5]; 12.0 mg/kg i.p.
  Lethality, Dimetilan alone (number of mice dead): 1
[5]; 16.0 mg/kg i.p.
  Lethality, Dimetilan alone (number of mice dead): 3
[5]; 20.0 mg/kg i.p.
  Lethality, Dimetilan alone (number of mice dead): 4
[5]; 24.0 mg/kg i.p.
  Lethality, Dimetilan alone (number of mice dead): 7
[5]; 28.0 mg/kg i.p.
  Lethality, Dimetilan alone (number of mice dead): 8
[5]; 32.0 mg/kg i.p.
  Lethality, Dimetilan alone (number of mice dead): 8
[5]; [7]
  number of mice dead, Dimetilan control (0.1 ml oil), 80 mg/kg: 0
  number of mice dead, Dimetilan control (0.1 ml oil), 240 mg/kg: 0
[5]; i.p.
  dose level just below that at which Dimetilan alone showed lethality to the mice: 8 mg/kg

## CNC(=O)Oc1cccc2ccc(C)nc12 [GS 13798, 8-(2-methylquinolyl)-N-methylcarbamate, reference compound]
[3]; [6]
  mortality, insecticide used without synergist: 10-40%

## C#CCn1ncc2ccc(Cl)cc21 [III-D]
Male mice; [8]
  Mean Sleeping Time, Noludar: 45 min
  Mean Sleeping Time, Secobarbital: 55 min
Male mice; synergist 110 mg/kg
  Relative Sleeping Time, Noludar: 1.5
  Relative Sleeping Time, Secobarbital: 1.2
[4]
  Contact Synergistic Ratio, Pyrolan: 25
  Contact Synergistic Ratio, Carbaryl: 250
[5]; [9]
  number of mice dead, with Dimetilan: 1

## C#CCOC(c1ccc(Cl)cc1Cl)C(C)[N+](=O)[O-] (centres unmarked) [IV-A, 2-propynyl 1-(2,4-dichlorophenyl)-2-nitropropyl ether]
Male mice; [8]
  Mean Sleeping Time, Noludar: 78 min
Male mice; synergist 110 mg/kg
  Relative Sleeping Time, Noludar: 2.7
Male mice; synergist 74 mg/kg one hour prior
  Mean Sleeping Time, Secobarbital: 56 min
Male mice; synergist 74 mg/kg
  Relative Sleeping Time, Secobarbital: 2.3
[4]
  Contact Synergistic Ratio, Pyrolan: 10
  Contact Synergistic Ratio, Carbaryl: 134
[5]; Dimetilan 8 + synergist 80 mg/kg i.p.
  number of mice dead, with Dimetilan: 4
[5]; [9]
  number of mice dead, with Dimetilan: 7
